Patent publication US12590062B2, “PD-1/PD-L1 inhibitors” (Gilead Sciences, Inc., priority 2017, dated 2026)

Key:
PD-1/PD-L1 = PD-1/PD-L1 (Homo sapiens, UniProt Q9NZQ7); assay: PD-1/PD-L1 biochemical protein-protein interaction assay (ALPHA); type: binding; conditions: 0.3 nM His tagged PD-L1, 2.5 nM biotinylated Fc-PD-1, 60 minutes at 25° C., read-out: IC50 PD-L1-PD-1 Alpha IC50-mono PD-L1-fcP-D1
Method in brief: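 Compounds are tested for blocking the PD-1/PD-L1 extracellular-domain interaction using an ALPHA bead assay, in which inhibition lowers the luminescent signal. Reactions run 60 min at 25° C with 0.3 nM His-PD-L1 and 2.5 nM biotinylated Fc-PD-1. IC50 values come from four-parameter fits.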

PD-1/PD-L1 interaction = target: T1, PD-1/PD-L1 interaction (Homo sapiens, UniProt Q9NZQ7); assay: PD-1/PD-L1 NFAT reporter co-culture assay; type: cell-based; conditions: Jurkat PD-1 NFAT-luciferase cells co-cultured with aAPC-PD-L1 CHO cells, 6 hrs at 37° C.; read-out: EC50 NFAT Luciferase
T1 construct: expressed in transfected cells; host or cells: CHO cells (aAPC-PD-L1) co-cultured with Jurkat cells overexpressing PD-1 and an NFAT-luciferase reporter
Method in brief: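 Luminescence (ONE-Glo) after 6 h, 37 °C co-culture reports NFAT-luciferase in PD-1 Jurkat cells, which PD-1/PD-L1 engagement suppresses. Partner cells: CHO expressing anti-CD3 and PD-L1. EC50 from four-parameter dose-response fit.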

PD-L1 = target: T2, PD-L1 (Homo sapiens, UniProt Q9NZQ7); assay: PD-L1/PD-L1 dimerization biochemical protein-protein interaction assay (ALPHA); type: binding; conditions: compound-induced PD-L1 dimerization, head prints '1 nM' (0.5 nM His-tagged PD-L1 and 0.5 nM FLAG-tagged PD-L1), read-out: AC50 PDL1 Dimer Alpha 1 nM
T2 construct: determine if they can specifically dimerize the extracellular domains of PD-L1
Method in brief: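 ALPHA proximity assay of compound-induced dimerization of 0.5 nM His-tagged and 0.5 nM FLAG-tagged PD-L1 extracellular domains in Hepes pH 7.4 buffer, 2 h at 25 °C. Anti-His acceptor then anti-FLAG donor beads, 60 min each; AC50 from four-parameter fit.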

T2 sequence (Q9NZQ7 19-238 limits assumed): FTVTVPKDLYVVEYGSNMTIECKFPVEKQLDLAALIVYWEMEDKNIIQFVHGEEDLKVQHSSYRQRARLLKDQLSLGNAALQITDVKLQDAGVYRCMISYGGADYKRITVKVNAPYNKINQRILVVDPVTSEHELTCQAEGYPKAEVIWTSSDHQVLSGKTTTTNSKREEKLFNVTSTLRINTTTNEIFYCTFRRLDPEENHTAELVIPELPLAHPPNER
T2 sequence (Q9NZQ7 19-238 limits assumed): as above
Chain of PD-1/PD-L1 (Q9NZQ7 19-238 limits assumed): as above
T1 sequence (Q9NZQ7 19-290): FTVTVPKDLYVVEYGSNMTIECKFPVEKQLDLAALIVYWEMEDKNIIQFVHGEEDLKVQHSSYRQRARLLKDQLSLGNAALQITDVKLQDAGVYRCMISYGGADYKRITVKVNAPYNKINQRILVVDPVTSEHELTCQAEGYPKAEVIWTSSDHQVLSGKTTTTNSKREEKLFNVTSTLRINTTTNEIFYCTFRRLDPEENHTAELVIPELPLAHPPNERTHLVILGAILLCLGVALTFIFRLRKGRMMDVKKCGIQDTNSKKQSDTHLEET

IC50 (PD-1/PD-L1)	EC50 (PD-1/PD-L1 interaction)	AC50 (PD-L1)	SMILES
0.109 nM	1020 nM	95.9 nM	Cc1c(COc2cc(OCc3cncc(C#N)c3)c(CN[C@@](C)(CO)C(=O)O)cc2Cl)cccc1-c1c(F)ccc(-c2ccc(CN(C)C)cc2)c1Cl [Example 301, (2S)-2-((5-chloro-4-((2′-chloro-4″-((dimethylamino)methyl)-6′-fluoro-2-methyl-[1,1′:3′,1″-terphenyl]-3-yl)methoxy)-2-((5-cyanopyridin-3-yl)methoxy)benzyl)amino)-3-hydroxy-2-methylpropanoic acid]
0.284 nM	466 nM	290 nM	Cc1c(COc2cc(OCc3cncc(C#N)c3)c(CN[C@@](C)(CO)C(=O)O)cc2Cl)cccc1-c1cccc(-c2nnc(CCN)o2)c1C [Example 329, (S)-2-((4-((3′-(5-(2-aminoethyl)-1,3,4-oxadiazol-2-yl)-2,2′-dimethyl-[1,1′-biphenyl]-3-yl)methoxy)-5-chloro-2-((5-cyanopyridin-3-yl)methoxy)benzyl)amino)-3-hydroxy-2-methylpropanoic acid]
1.11 nM	196 nM	149 nM	Cn1cc(CN2CC3(CCC(=O)N3)C2)c2ccc(-c3cccc(-c4cccc(-c5ccc6c(CN7CC8(CCC(=O)N8)C7)cn(C)c6n5)c4Cl)c3Cl)nc21 [Example 476]
0.076 nM	253 nM	144 nM	Cc1c(COc2cc(OCc3cncc(C#N)c3)c(CNC[C@@H](O)CC(=O)O)cc2Cl)cccc1-c1cccc(-c2cnc3c(CNC[C@@H](O)CC(=O)O)cccc3c2)c1C [Example 452]
0.064 nM	80 nM	8.23 nM	C[C@@](CO)(NCc1cc(Br)c(O[C@H]2CCc3c(-c4cccc(-c5ccc(C6=NCCN6)cc5)c4Cl)cccc32)nc1OCc1cncc(C#N)c1)C(=O)O [Example 737]
0.064 nM	113 nM	19.2 nM	COc1nc(-c2cccc(-c3cccc4c3CC[C@@H]4Oc3nc(OCc4cncc(C#N)c4)c(CN[C@@](C)(CO)C(=O)O)cc3Cl)c2Cl)ccc1C1=NCCN1 [Example 745]
0.111 nM	895 nM	326 nM	Cc1c(COc2cc(OCc3cncc(C#N)c3)c(CN[C@@](C)(CO)C(=O)O)cc2Cl)cccc1-c1cccc(-c2nnc(CCN3CC[C@@H](O)C3)o2)c1C [Example 453]
0.818 nM	3050 nM	332 nM	COc1nc(-c2cccc(-c3cccc4c3CC[C@@H]4Oc3nc(OCc4cncc(C#N)c4)c(CNC(C)(C)C(=O)O)cc3Cl)c2Br)ccc1C1=NCCN1 [Example 701]
0.4 nM	447 nM	118 nM	Cc1c(COc2cc(OCc3cncc(C#N)c3)c(CN[C@@](C)(CO)C(=O)O)cc2Cl)cccc1-c1cccc(-c2ccc(C3CCNC3)cc2)c1C (stereo partly drawn) [Example 342, (S)-2-((5-chloro-2-((5-cyanopyridin-3-yl)methoxy)-4-((2,2′-dimethyl-4″-((R)-pyrrolidin-3-yl)-[1,1′:3′,1″-terphenyl]-3-yl)methoxy)benzyl)amino)-3-hydroxy-2-methylpropanoic acid and(S)-2-((5-chloro-2-((5-cyanopyridin-3-yl)methoxy)-4-((2,2′-dimethyl-4″-((S)-pyrrolidin-3-yl)-[1,1′:3′,1″-terphenyl]-3-yl)methoxy)benzyl)amino)-3-hydroxy-2-methylpropanoic]
0.105 nM	527 nM	252 nM	Cc1c(COc2cc(OCc3cncc(C#N)c3)c(CNC[C@@H](O)CC(=O)O)cc2Cl)cccc1-c1cccc(-c2ncc(COCCNC[C@@H](O)CC(=O)O)s2)c1C [Example 350, (S)-4-((4-((3′-(5-((2-(((S)-3-carboxy-2-hydroxypropyl)amino)ethoxy)methyl)thiazol-2-yl)-2,2′-dimethyl-[1,1′-biphenyl]-3-yl)methoxy)-5-chloro-2-((5-cyanopyridin-3-yl)methoxy)benzyl)amino)-3-hydroxybutanoic acid]
0.217 nM	151 nM	89.6 nM	Cc1c(COc2cc(OCc3cncc(C#N)c3)c(CNC[C@@H](O)CC(=O)O)cc2Cl)cccc1-c1cccc(-c2nc3c(C)c(CNC[C@@H](O)CC(=O)O)ccc3s2)c1C [Example 395, (S)-4-(((2-(3′-((4-((((S)-3-carboxy-2-hydroxypropyl)amino)methyl)-2-chloro-5-((5-cyanopyridin-3-yl)methoxy)phenoxy)methyl)-2,2′-dimethyl-[1,1′-biphenyl]-3-yl)-4-methylbenzo[d]thiazol-5-yl)methyl)amino)-3-hydroxybutanoic acid]
1.38 nM	2580 nM	633 nM	Cc1c(-c2ccc(CN3CC[C@@H](O)C3)cc2)cccc1-c1cccc(-c2ccc(CNC[C@@H](O)CC(=O)O)c(OC(F)(F)F)c2)c1C [Example 325, (S)-3-hydroxy-4-(((4′″-(((R)-3-hydroxypyrrolidin-1-yl)methyl)-2′,2″-dimethyl-3-(trifluoromethoxy)-[1,1′:3′,1″:3″,1′″-quaterphenyl]-4-yl)methyl)amino)butanoic acid]
0.719 nM	1490 nM	266 nM	Cc1c(COc2cc(OCc3cncc(C#N)c3)c(CN[C@@](C)(CO)C(=O)O)cc2Cl)cccc1-c1cccc(-c2ccc(O[C@@H]3CCNC[C@H]3F)cc2)c1Cl [Example 445]
0.659 nM	605 nM	3100 nM	C[C@@](CO)(NCc1cc(Cl)c(O[C@H]2CCc3c(-c4cccc5c4CC[C@@H]5Oc4ccc(CN5CC[C@@H](O)C5)c(OCc5cncc(S(C)(=O)=O)c5)n4)cccc32)nc1OCc1cncc(S(C)(=O)=O)c1)C(=O)O [Example 687]
1.05 nM	130 nM	352 nM	COc1nc(-c2cccc(-c3cccc(-c4ccc5c(CNC[C@H]6CCC(=O)N6)cn(C)c5c4)c3Cl)c2Cl)ccc1CNC[C@H]1CCC(=O)N1 [Example 605]
0.111 nM	135 nM	37.2 nM	CC(C)(NCc1cc(Cl)c(OCc2cccc(-c3cccc(-c4ccc(OCCNCCO)cc4)c3Cl)c2Cl)nc1OCc1cc(C#N)cc(C#N)c1)C(=O)O [Example 578]
0.252 nM	467 nM	157 nM	Cc1c(COc2cc(OCc3cncc(C#N)c3)c(CNC[C@@H](O)CC(=O)O)cc2Cl)cccc1-c1cccc(-c2ccc(CN(C)C)cc2)c1C [Example 383, (S)-4-((5-chloro-2-((5-cyanopyridin-3-yl)methoxy)-4-((4″-((dimethylamino)methyl)-2,2′-dimethyl-[1,1′:3′,1″-terphenyl]-3-yl)methoxy)benzyl)amino)-3-hydroxybutanoic acid]
0.064 nM	39 nM	67.7 nM	COc1nc(O[C@H]2CCc3c(-c4cccc(-c5cnc6c(CN7CC8(CNC(=O)C8)C7)cn(C)c6n5)c4Cl)cccc32)c(Cl)cc1CN1CCC[C@@H](C(=O)O)C1 [Example 524]
0.206 nM	158 nM	235 nM	COc1nc(-c2cccc(-c3cccc(-c4ccc5c(CNC[C@@H]6CCC(=O)N6)cc(=O)n(C)c5c4)c3Cl)c2Cl)ccc1CNC[C@@H]1CCC(=O)N1 [Example 603]
0.163 nM	89 nM	164 nM	Cn1cc(CN2CC3(CCC(=O)N3)C2)c2ncc(-c3cccc(-c4cccc(-c5cnc6c(CN7CC8(CCC(=O)N8)C7)cn(C)c6n5)c4Cl)c3Cl)nc21 [Example 589]
0.168 nM	240 nM	103 nM	Cc1c(COc2cc(OCc3cncc(C#N)c3)c(CN3CC[C@@H](O)C3)cc2Cl)cccc1-c1cccc(-c2ccc(OCCNC[C@@H](O)CC(=O)O)cc2)c1C [Example 309, (S)-4-((2-((3″-((2-chloro-5-((5-cyanopyridin-3-yl)methoxy)-4-(((R)-3-hydroxypyrrolidin-1-yl)methyl)phenoxy)methyl)-2′,2″-dimethyl-[1,1′:3′,1″-terphenyl]-4-yl)oxy)ethyl)amino)-3-hydroxybutanoic acid]
0.064 nM	18 nM	13.6 nM	COc1nc(-c2cccc(-c3cccc4c3CC[C@@H]4Oc3nc(OC)c(CN4CCCC(O)(C(=O)O)C4)cc3Cl)c2Cl)ccc1CNC[C@@H]1CCC(=O)N1 (stereo partly drawn) [Example 762]
0.064 nM	65 nM	77 nM	Cc1c(COc2cc(OCc3cncc(C#N)c3)c(CNC[C@@H](O)CC(=O)O)cc2Cl)cccc1-c1cccc(-c2nc3ccc(CNC[C@@H](O)CC(=O)O)cn3n2)c1C [Example 595]
0.693 nM	210 nM	262 nM	COc1cc(-c2cccc(-c3cccc(COc4cc(OCc5cncc(C#N)c5)c(CNC[C@@H](O)CC(=O)O)cc4Cl)c3C)c2C)ccc1CN [Example 507]
0.064 nM	288 nM	53.6 nM	C[C@@](CO)(NCc1ccc(O[C@H]2CCc3c(-c4cccc(-c5ccc(C6=NCCN6)cc5)c4Cl)cccc32)nc1OCc1cncc(C#N)c1)C(=O)O [Example 740]
